In data set [1] the test system is human erythroid progenitors (CFU-E, BFU-E). The data set is described as follows: Erythroid CFU assay in human bone marrow cells. Format: cell-based. On the procedure: (§1) Compounds were tested to evaluate the potential effects on human erythroid and myeloid progenitors using colony forming cell assays. Clonogenic progenitors of human erythroid (CFU-E, BFU-E), granulocyte-monocyte (CFU-GM) and multipotential (CFU-GEMM) lineages were assessed in a semi-solid methylcellulose-based media formulation containing rhlL-3 (10 ng/mL), rhGM-SCF (10 ng/mL), rhSCF (50 ng/mL) and Epo (3 U/mL).
(§2) Normal human bone marrow light density cells derived from normal bone marrow (NorCal Biologics, California) and qualified at ReachBio, were stored in the gaseous phase of liquid nitrogen (−152° C.) until required for the assay. On the day of the experiment, the cells were thawed rapidly, the contents of each vial was diluted in 10 mL of Iscove's modified Dulbecco's medium containing 10% fetal bovine serum (IMDM+10% FBS) and washed by centrifugation (approximately 1200 r.p.m. for 10 minutes, room temperature). The supernatant was discarded and the cell pellets resuspended in a known volume of IMDM+10% FBS. A cell count (3% glacial acetic acid) and viability assessment (trypan blue exclusion test) was performed for the bone marrow sample.
(§3) On the day of the experiment, the compounds were dissolved in DMSO to a stock concentration of 10 mM. Serial dilutions were prepared from the stock concentration to achieve concentrations of 2 and 0.4 mM. When added to the methylcellulose-based media at 1:1000 (v/v), the final test concentrations of 10, 2 and 0.4 μM were achieved. Additionally, 5-FU was evaluated at 1.0, 0.1 and 0.01 μg/mL.
(§4) Clonogenic progenitors of the human erythroid (CFU-E and BFU-E) and myeloid (CFU-GM) lineages were set up in the methylcellulose-based media formulations described above. All compounds were added to the medium to give the final desired concentrations (10, 2 and 0.4 μM). 5-Fluorouracil (Sigma Aldrich) was used as a positive control for progenitor proliferation (inhibition of colony growth) and was introduced to the human bone marrow cultures at 1.0, 0.1, and 0.01 μg/mL. Solvent control cultures (containing no compound but 0.1% DMSO) as well as standard controls (containing no compound and no DMSO) were also initiated.
(§5) Human myeloid and erythroid progenitor assays were initiated at 2.0×10^4 cells per culture. Following 14 days in culture, myeloid and erythroid colonies were assessed microscopically and scored by trained personnel. The colonies were divided into the following categories based on size and morphology: CFU-E, BFU-E, CFU-GM and CFU-GEMM.
(§6) The mean±one standard deviation of three replicate cultures was calculated for progenitors of each category (CFU-E, BFU-E, etc.). Two-tailed t-tests were performed to assess if there was a difference in the number of colonies generated between solvent control and treated cultures. Due to the potential subjectivity of colony enumeration, a p value of less than 0.01 is deemed significant. To calculate the concentration of 50% inhibition of colony growth (IC50) for each compound, a dose response curve was generated plotting the log of the compound concentration versus the percentage of control colony growth using XLfit software (IDBS). The concentration of 50% inhibition of colony growth (IC50) was calculated based on the sigmoid curve fit using Dose-Response, One-Site Model formula: y=A+[(B−A)/(1+((C/x)^D))], where A=the initial value (baseline response), B=maximum response, C=center (drug concentration that provokes a response halfway between A and B) and D=slope of the curve at midpoint. Further, plots and additional dose response curves were generated using GraphPad Prism 7.0.
(§7) Erythroid (CFU-E and BFU-E), myeloid (CFU-GM) and multi-potential (CFU-GEMM) colony enumeration was performed by trained personnel. The distribution of colony types as well as general colony and cellular morphology was analyzed. For statistical analysis colony numbers in compound treated cultures were compared to the solvent control cultures. […]

The subject of data set [2] is human myeloid progenitors (CFU-GM). Briefly: Myeloid CFU assay in human bone marrow cells. Format: cell-based. The method, then: as §1, §2, §3, §4, §5, §6, §7
The next data set deals with T1, HDAC1 (Homo sapiens, UniProt Q13547).
T1 construct: purchased BPS Bioscience
Briefly: HDAC1 recombinant enzymatic assay. Conditions: 5 h pre-incubation, 5 nM enzyme; read-out: HDAC recombinant enzymatic IC50 HDAC1. Format: biochemical. On the procedure: (§8) The following describes an assay protocol for measuring the deacetylation of a peptide substrate by the enzymes HDAC2 or HDAC1.
(§9) All recombinant human HDACs were purchased from BPS Bioscience. The substrate, FAM-TSRHK(AC)KL-CONH, was synthesized at NanoSyn. Final assay reactions contained 100 mM HEPES (pH 7.5), 50 mM KCl, 0.1% BSA, 0.01% Triton X-100, 1% DMSO, 1 uM substrate and 5 nM HDAC enzyme. Enzyme and compounds were pre-incubated at 25° C. for 5 hours and reactions were initiated by addition of substrate. 10 uL reactions were incubated for 17 hours at 25° C. and terminated by the addition of 40 uL of buffer containing 100 mM HEPES (pH 7.5), 0.1% BSA, 0.01% Triton X-100 and 0.05% SDS. Substrate and product peptides present in each sample were separated electrophoretically using the LabChip 3000 capillary electrophoresis instrument. Change in the relative fluorescence intensity of the substrate and product peaks reflects enzyme activity. Reaction progress was determined as the product to sum ratio (PSR):P/(S+P), where P is the peak height of the product peptide and S is the peak height of the substrate peptide. Reactions were performed in duplicate at 12 concentrations, (3× serial dilutions starting at 30 uM). IC50 values were calculated using a 4 Parameter Logistic Model.

A further data set has as its target T2, CYP2D6 (Homo sapiens, UniProt P10635).
T2 construct: Human liver microsomes were obtained from BD Gentest; tissue BD Gentest; host or cells: human liver microsomes
Briefly: CYP inhibition assay in human liver microsomes (2D6). Format: in vitro ADME. The conditions noted are these: for inhibition at 10 min, 10 µM: human liver microsomes; for inhibition of CYP2D6 (in words): 10 μM. The method, then:
(§10) Compounds were tested to evaluate their inhibitory potential on CYP2D6 and CYP3A4 (midazolam) using human liver microsomes. Human liver microsomes were obtained from BD Gentest, and each compound was run in duplicate.
(§11) The test compounds and reference inhibitors (quinidine for 2D6, ketoconazole for 3A4) were plated in a 96-well plate by transferring 8 μL of 10 mM stock solutions of compound in DMSO to 12 μL of acetonitrile. Individual inhibitor spiking solutions were prepared for CYP2D6 and CYP3A4 (8 μL of DMSO stock added to 12 μL of acetonitrile). Next added 400 μL of 0.2 mg/mL HLM to the assay wells and then added 2 μL of 400× test compound into the designated wells on ice. Next, added 200 μL of 0.2 mg/mL HLM to the assay wells and then added 1 μL of reference inhibitor solutions into the designated wells. The following solutions were added (in duplicate) to a 96-well assay plate on ice: The test compounds and reference inhibitors (quinidine for 2D6, ketoconazole for 3A4) were tested using the following experimental procedure:
(§12) 10. Incubate the assay plate at 37° C. 5 min for 3A4, 10 min for 2D6.
(§13) 11. Stop the reaction by adding 120 μL of ACN containing Internal Standard. For CYP3A4, the internal standard is 1′OH-midazolam-D4 (10 μM solution diluted to a final concentration of 0.1 μM by adding 100 μL internal standard stock to 10 mL ACN). For CYP2D6, the internal standard is 1-OH-Bufuralol-maleate-[D9] (49 μM solution diluted to a final concentration of 0.1 μM by adding 20 μL internal standard stock to 10 mL ACN).
(§14) The assessment on CYP isoform inhibition is as follows based on the assay results: if percentage of CYP inhibition is higher than 50%, indicates potent inhibition; if percentage of CYP inhibition is between 30-50%, indicates […]; if percentage of CYP inhibition is less than 30%, indicates slight or no inhibition. If the percentage of CYP inhibition is less than −30%, this indicates the compound may have some kind of activation of this isoform.

Data set [3] can be described thus: Aqueous kinetic solubility measurement. Format: physicochemical. Conditions: for solubility at 1 h: aqueous buffer, kinetic from dmso stock, kinetic, 100 mM phosphate buffer pH 7.4, 1% DMSO. The method, then:
Compounds were evaluated for their kinetic solubility in buffer or water. Aliquots of 8 μL of reference and test compound stock solutions (10 mM in DMSO) were added into 792 μL of 100 mM phosphate buffer (0.1 M NaPO4, pH 7.4). Final DMSO concentration is 1%. The sample tubes were shaken for 1 hour (1000 rpm) at room temperature. A calibration curve was prepared using 300 μM spiking solution (SS) in MeOH/ACN(4:1) (SS=add 6 μL 10 mM compound in 194 μL MeOH/ACN(4:1)). Samples were centrifuged for 10 min (12000 rpm) to precipitate undissolved particles, and the supernatants were transferred to a new tube or plate. Supernatants were diluted 10 times and 100 times with 100 mM buffer. Samples were then prepared for analysis by LC-MS/MS (Add 5 μL of compound samples (not diluted, 10 times diluted and 100 times diluted) and standard curve samples to 95 μL of ACN containing internal standard. Internal standards used are Propranolol, Ketoconazole, and Tamoxifen.

The target of data set [4] is T3, HDAC2 (Homo sapiens, UniProt Q92769). Briefly: HDAC2 recombinant enzymatic assay. Format: biochemical. The conditions noted are these: 5 h pre-incubation, 5 nM enzyme; read-out: HDAC recombinant enzymatic IC50 HDAC2. The arrangement: purchased BPS Bioscience. The method, then:
as §8, §9

Data set [5] addresses T3, HDAC2. Briefly: HDAC2 enzymatic inhibition assay in SY5Y cell lysate with HDAC-Glo2 substrate. Format: cell-based. Conditions: SH-SY5Y cells, 5 h compound incubation, HDAC-Glo 2 reagent. More on the design: host or cells: SH-SY5Y. The method, then:
HDAC2 Enzymatic Inhibition Assay in SY5Y Cell Lysate with HDAC-Glo2 Substrate
SH-SY5Y cells (Sigma) were cultured in Eagle's Modified Essential Medium supplemented with 10% fetal bovine serum and pen/strep. Twenty-four hours prior to compound dosing 20 uL of cells were plated in white 384 well plates at a density of 1,500 cells/well. Compounds were serially diluted in neat DMSO and then diluted 1:100 v/v into media without FBS and mixed. Media was removed from the plated cells and the diluted compounds in serum free media (1% v/v final DMSO) were added and incubated at 37.0 for five hours. Ten uL of HDAC-Glo 2 reagent with 0.1% Triton X-100 was then added, the plate was mixed and allowed to develop at room temperature for 100 minutes. Plates were then read with a Spectramax LMax luminometer employing a 0.4 s integration time. Dose response curves were constructed with normalized data where CI-994 at 100 uM was defined as 100% inhibition and DMSO alone as 0% inhibition.

A further data set deals with T4, CYP3A4 (Homo sapiens, UniProt P08684).
T4 construct: Human liver microsomes were obtained from BD Gentest; tissue BD Gentest; host or cells: human liver microsomes
The data set is described as follows: CYP inhibition assay in human liver microsomes (3A4, midazolam). Format: in vitro ADME. The conditions noted are these: for inhibition at 5 min, 10 µM: probe midazolam, human liver microsomes, midazolam. On the procedure: as §10, §11, §12, §13, §14
(In general: Liver microsomes are vesicles of endoplasmic reticulum, rich in cytochrome P450 enzymes.)

[6] abbreviates: 10 μM, 14 days culture, human bone marrow cells.

Consider five molecules from patent US11286256B2, “Bicyclic inhibitors of histone deacetylase” (Alkermes, Inc., priority 2017, dated 2022).

≈ marks a conversion by molar mass, not a printed value.

T3 sequence (Q92769 whole entry): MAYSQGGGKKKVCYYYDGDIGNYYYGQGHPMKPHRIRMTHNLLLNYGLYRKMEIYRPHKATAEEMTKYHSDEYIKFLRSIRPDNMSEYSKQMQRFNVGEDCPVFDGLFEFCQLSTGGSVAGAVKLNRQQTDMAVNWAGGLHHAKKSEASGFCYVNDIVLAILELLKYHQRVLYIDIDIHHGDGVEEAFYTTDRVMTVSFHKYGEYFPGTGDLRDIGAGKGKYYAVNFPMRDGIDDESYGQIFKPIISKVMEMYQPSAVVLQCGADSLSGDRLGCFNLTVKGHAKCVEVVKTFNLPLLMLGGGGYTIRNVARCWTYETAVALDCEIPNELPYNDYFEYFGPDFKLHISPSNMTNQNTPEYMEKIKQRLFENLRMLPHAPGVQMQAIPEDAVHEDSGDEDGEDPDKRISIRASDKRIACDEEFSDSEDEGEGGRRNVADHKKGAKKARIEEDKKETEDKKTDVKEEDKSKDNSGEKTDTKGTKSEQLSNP
T1 sequence (Q13547 whole entry): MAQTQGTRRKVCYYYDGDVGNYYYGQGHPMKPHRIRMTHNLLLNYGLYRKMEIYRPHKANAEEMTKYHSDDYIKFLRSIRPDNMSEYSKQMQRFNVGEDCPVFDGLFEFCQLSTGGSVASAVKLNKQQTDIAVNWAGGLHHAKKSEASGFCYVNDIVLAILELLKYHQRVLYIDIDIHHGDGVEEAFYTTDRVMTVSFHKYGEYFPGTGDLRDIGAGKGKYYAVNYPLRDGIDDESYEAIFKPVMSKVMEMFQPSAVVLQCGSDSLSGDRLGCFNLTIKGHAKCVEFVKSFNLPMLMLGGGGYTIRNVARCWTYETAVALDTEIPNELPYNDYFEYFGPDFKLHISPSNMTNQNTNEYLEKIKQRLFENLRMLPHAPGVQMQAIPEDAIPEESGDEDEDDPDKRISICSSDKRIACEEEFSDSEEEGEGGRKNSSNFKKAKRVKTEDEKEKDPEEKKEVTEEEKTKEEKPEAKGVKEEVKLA
T4 sequence (P08684 whole entry): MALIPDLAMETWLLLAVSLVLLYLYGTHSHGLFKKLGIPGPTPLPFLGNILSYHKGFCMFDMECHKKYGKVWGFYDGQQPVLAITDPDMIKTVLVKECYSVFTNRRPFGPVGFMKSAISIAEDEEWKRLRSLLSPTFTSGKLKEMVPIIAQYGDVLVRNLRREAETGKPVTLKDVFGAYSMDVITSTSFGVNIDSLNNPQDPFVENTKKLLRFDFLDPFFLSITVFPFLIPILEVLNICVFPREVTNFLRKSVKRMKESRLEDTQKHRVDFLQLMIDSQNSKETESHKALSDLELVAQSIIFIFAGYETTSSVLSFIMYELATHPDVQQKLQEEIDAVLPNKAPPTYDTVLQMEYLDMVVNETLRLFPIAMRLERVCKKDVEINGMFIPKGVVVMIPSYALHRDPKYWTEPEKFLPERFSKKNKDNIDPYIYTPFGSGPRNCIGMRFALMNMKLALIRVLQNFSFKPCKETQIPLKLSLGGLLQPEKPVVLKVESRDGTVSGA
T2 sequence (P10635 whole entry): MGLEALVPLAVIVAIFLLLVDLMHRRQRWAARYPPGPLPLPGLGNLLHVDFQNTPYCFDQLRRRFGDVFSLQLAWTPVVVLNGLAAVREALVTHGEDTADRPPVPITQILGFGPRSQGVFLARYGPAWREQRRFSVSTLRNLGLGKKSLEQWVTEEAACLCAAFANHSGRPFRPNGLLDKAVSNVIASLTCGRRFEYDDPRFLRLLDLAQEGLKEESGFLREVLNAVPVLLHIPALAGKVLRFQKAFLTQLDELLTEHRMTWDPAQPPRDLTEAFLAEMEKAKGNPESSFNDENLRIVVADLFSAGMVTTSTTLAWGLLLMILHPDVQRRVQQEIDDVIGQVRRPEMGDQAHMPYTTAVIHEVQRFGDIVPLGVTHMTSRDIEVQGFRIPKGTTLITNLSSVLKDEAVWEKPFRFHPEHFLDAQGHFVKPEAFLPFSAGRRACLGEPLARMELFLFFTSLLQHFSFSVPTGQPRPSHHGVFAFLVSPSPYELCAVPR

As for `O=c1[nH]cc(F)c(=O)[nH]1` [Compound 5-FU, 5-Fluorouracil], the “inhibitory effects on erythroid colony growth (positive control, in words)” value in data set [1] (1.0, 0.1 and 0.01 μg/mL) was “exactly as expected”. Besides, the “inhibitory effects on myeloid colony growth (positive control, in words)” value in data set [2] (1.0, 0.1 and 0.01 μg/mL) was “exactly as expected”.

Turning to `Cc1cc2c(cn1)CN(C(=O)Nc1nc(-c3ccc(F)cc3)ccc1N)C2` [Comparator H], the IC50 at HDAC1 was 90 nM; on HDAC2 [4], 214 nM; on HDAC2 [5], 621 nM. For the same molecule, the inhibition at 10 min, 10 µM on CYP2D6 was found to be 57%. The solubility at 1 h in data set [3] was 78 µM (≈ 28.3 µg/mL). Also, on CYP3A4, the inhibition at 5 min, 10 µM turned out to be 28%.

As to `Nc1ccc(-c2ccc(F)cc2)nc1NC(=O)N1Cc2ccncc2C1` [Comparator G], the values for the IC50 at HDAC1, at HDAC2 [4] and against HDAC2 [5] were 143 nM, 335 nM and 639 nM, respectively. Also, on CYP2D6, the “inhibition of CYP2D6 (in words)” value is reported as “inhibited at high levels”. The inhibition at 10 min, 10 µM against CYP2D6 amounted to 94%. This molecule had a solubility at 1 h in data set [3] of 55 µM (≈ 19.2 µg/mL). Besides, the “inhibition of CYP3A4 (in words)” value at CYP3A4 (10 μM) was “inhibited at high levels”. Further, on CYP3A4, the inhibition at 5 min, 10 µM came out at 65%.

For `COCc1cc2c(cn1)CN(C(=O)Nc1nc(-c3ccc(F)cc3)ccc1N)C2` [Comparator I], the inhibition at 10 min, 10 µM against CYP2D6 was 2%. In data set [3], the solubility at 1 h came to 121 µM (≈ 47.6 µg/mL). Also, the “CFU % Control remaining @ 10 μM Erythroid” value in data set [1] (setting [6]) was 23%. On HDAC2 [5], this molecule came in with an IC50 of 666 nM. For the same molecule, the “CFU % Control remaining @ 10 μM Myeloid” value in data set [2] (setting [6]) was determined as 59%. Also, on CYP3A4, the inhibition at 5 min, 10 µM was 33%.

For `Nc1ccc(-c2ccc(F)cc2)nc1NC(=O)N1Cc2cccnc2C1` [Comparator F], at HDAC1, the IC50 came to 79 nM. Moreover, on CYP2D6, the “inhibition of CYP2D6 (in words)” value is listed as “high levels” and the inhibition at 10 min, 10 µM worked out at 62%. In data set [3], the “solubility (in words)” value was “extremely low” and the solubility at 1 h came out at 1 µM (≈ 0.349 µg/mL). Further, the IC50 at HDAC2 [4] was 304 nM. Besides, on HDAC2 [5], half-maximal inhibition (IC50) required 394 nM. For the same molecule, on CYP3A4, the inhibition at 5 min, 10 µM is -4%.

For orientation: IC50 means the concentration at which inhibition is half-maximal. As a reminder, the inhibition is the change of the read-out against control, counted positive when it falls. As usually defined, the solubility is how much of the substance goes into solution per volume. A higher solubility goes with much dissolved substance.
